Experiment: Tank-mix compatibility test of dodine 400 SC with another pesticide or adjuvant
Assay type: physicochemical
Conditions: dodine 400 SC 1.25 l/200 l water plus other pesticide or adjuvant, observed after mixing for 30 minutes
Protocol: Test protocols for evaluating the compatibility of pesticide active ingredients and adjuvants are readily available and known to a person skilled in the art. A method suitable for use in the present invention is as follows: fill a 250 ml beaker with 200 ml of well water (temperature 15-17° C., water hardness 8° dH corresponding to 80 mg calcium oxide/l). […] Add a magnetic stirrer to the beaker. Stir the suspension for approximately 5 minutes at a speed of rotation of 700 rotations per minute. Add a mixing partner, such as an adjuvant or second plant protection product to the suspension. Stir the suspension for an additional 15 minutes. Stop stirring when a total stirring time of 20 minutes is obtained. Let the suspension stand unstirred for a few minutes. Then check for any separation, sediment, crystallization or flocculation. Note down the results of the visual observation. Stir the suspension for a further 20 minutes. Stop the stirring. After 2 hours have lapsed assess the compatibility for a second time. Upon finishing the second observation, pour the whole suspension over a 100 μm sieve. Note down if residue is present on the sieve.
Tank-mixes comprising dodine without acetate were prepared. […] Mixing was stopped.
As a comparison, the same tank-mixes were prospered, this time comprising dodine with acetate (A′-E′). […] Mixing was stopped after 30 minutes.

[1] = with sodium acetate 0.36 kg/200 l

Row | SMILES | Compatibility test [1] | Compatibility test (without compatibility agent)
1 | CCC(C)(C)C(=O)OC1=C(c2ccc(Cl)cc2Cl)C(=O)OC12CCCCC2 [spirodiclofen] | improved the compatibility | not possible due to incompatibility problems
2 | Cc1cc(C)nc(Nc2ccccc2)n1 [pyrimethanil, N-(4,6-dimethylpyrimidin-2-yl)aniline] | improved the compatibility | not possible due to incompatibility problems
3 | COc1cccc(C(=O)NN(C(=O)c2cc(C)cc(C)c2)C(C)(C)C)c1C [methoxyfenozide, benzoic acid, 3-methoxy-2-methyl-, 2-(3,5-dimethylbenzoyl)-2-(1,1-dimethylethyl)hydrazide] | improved the compatibility | not possible due to incompatibility problems
